Experimental data published in US12679878B2, “CRF2 receptor agonists and their use in therapy” (SANOFI, priority 2020, dated 2026).
Starred links: 1 amine or outer side, 2 acyl side, 3 side chain; linkers in the order of their positions; H or OH if unused. Residues, ends and D or L forms follow the SMILES beside them. Groups on a side chain read outwards from the residue. *: point of attachment. C20 diacid = O=C(O)CCCCCCCCCCCCCCCCCCC(=O)*; C18 diacid = O=C(O)CCCCCCCCCCCCCCCCC(=O)*; γGlu = O=C(O)[C@H](CCC(=O)[*:2])N[*:1]; AEEA = NCCOCCOCC(=O)O

Biological target: T1, human CRF2α receptor (Homo sapiens, UniProt Q13324)
T1 construct: expressed in transfected cells; host or cells: TeloHEAC
T1 sequence (Q13324 1-411): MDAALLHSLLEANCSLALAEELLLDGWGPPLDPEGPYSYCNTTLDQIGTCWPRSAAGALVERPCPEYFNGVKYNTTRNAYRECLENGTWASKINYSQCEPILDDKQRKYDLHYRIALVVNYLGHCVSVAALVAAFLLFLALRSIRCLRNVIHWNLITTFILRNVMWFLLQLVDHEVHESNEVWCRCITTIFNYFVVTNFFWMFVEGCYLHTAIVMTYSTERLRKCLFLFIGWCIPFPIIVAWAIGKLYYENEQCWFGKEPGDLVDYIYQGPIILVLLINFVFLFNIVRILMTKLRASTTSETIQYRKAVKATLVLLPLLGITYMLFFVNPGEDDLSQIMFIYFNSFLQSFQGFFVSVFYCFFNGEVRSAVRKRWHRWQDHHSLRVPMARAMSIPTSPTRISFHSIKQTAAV
Assay: cAMP agonism at human CRF2 α receptor in TeloHEAC cells (Example 7)
Format: cell-based
Details: cAMP HTRF, TeloHEAC cells stably expressing human CRF2 α, 0% HSA; read-out: EC50 [nM], 0% HSA
Summary of the method: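 Cryopreserved cells are thawed, washed and resuspended in IBMX-containing (2 mM) HEPES-buffered HBSS with or without 0.1% HSA. Compound incubation runs 30 min at room temperature with 2000 cells per well, then cAMP is measured by time-resolved FRET. Potency is expressed as EC50, efficacy relative to urocortin 2 at 1000 nM.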

Going from `CC[C@H](C)[C@H](NC(=O)[C@H](CCC(N)=O)NC(=O)[C@H](CCCCNC(=O)COCCOCCNC(=O)COCCOCCNC(=O)CC[C@H](NC(=O)CCCCCCCCCCCCCCCCC(=O)O)C(=O)O)NC(=O)[C@@H](NC(=O)[C@H](CCCCN)NC(=O)[C@@H](NC(=O)[C@@H]1CCCN1C(=O)[C@@H](NC(=O)[C@H](CC(=O)O)NC(=O)[C@H](CC(C)C)NC(=O)[C@H](CO)NC(=O)[C@H](CC(C)C)NC(=O)[C@@H](NC(=O)[C@@H](N)Cc1ccccc1)[C@@H](C)O)C(C)C)[C@@H](C)O)[C@@H](C)CC)C(=O)N[C@@H](CC(C)C)C(=O)N[C@@H](CC(C)C)C(=O)N[C@@H](CCCCN)C(=O)N[C@@H](CCC(N)=O)C(=O)N[C@@H](CCC(N)=O)C(=O)N[C@@H](CCCCN)C(=O)N[C@@H](CCC(N)=O)C(=O)N[C@@H](CCCCN)C(=O)N[C@@H](CCCCN)C(=O)N[C@@H](CCC(=O)O)C(=O)N[C@@H](CCCNC(=N)N)C(=O)N[C@@H](CCC(N)=O)C(=O)N[C@@H](CCCCN)C(=O)N[C@@H](C)C(=O)N[C@@H](CCC(=O)O)C(=O)N[C@H](C(=O)N[C@@H](CC(N)=O)C(=O)N[C@H](C(=O)N[C@@H](CCC(N)=O)C(=O)N[C@@H](CC(C)C)C(=O)N[C@@H](CC(C)C)C(=O)N[C@@H](CCC(=O)O)C(=O)N[C@@H](CCCNC(=N)N)C(=O)N[C@H](C(N)=O)C(C)C)C(C)C)[C@@H](C)O` [compound 55] (H-FTLSLDVPTKIK([AEEA-AEEA-γGlu-C18 diacid])QILLKQQKQKKERQKAETNVQLLERV-NH2; N-terminus assumed) to `CC[C@H](C)[C@H](NC(=O)[C@H](CCC(N)=O)NC(=O)[C@H](CCCCNC(=O)COCCOCCNC(=O)COCCOCCNC(=O)CC[C@H](NC(=O)CCCCCCCCCCCCCCCCCCC(=O)O)C(=O)O)NC(=O)[C@@H](NC(=O)[C@H](CCCCN)NC(=O)[C@@H](NC(=O)[C@@H]1CCCN1C(=O)[C@@H](NC(=O)[C@H](CC(=O)O)NC(=O)[C@H](CC(C)C)NC(=O)[C@H](CO)NC(=O)[C@H](CC(C)C)NC(=O)[C@@H](NC(=O)[C@@H](N)Cc1ccccc1)[C@@H](C)O)C(C)C)[C@@H](C)O)[C@@H](C)CC)C(=O)N[C@@H](CC(C)C)C(=O)N[C@@H](CC(C)C)C(=O)N[C@@H](CCCCN)C(=O)N[C@@H](CCC(N)=O)C(=O)N[C@@H](CCC(N)=O)C(=O)N[C@@H](CCCCN)C(=O)N[C@@H](CCC(N)=O)C(=O)N[C@@H](CCCCN)C(=O)N[C@@H](CCCCN)C(=O)N[C@@H](CCC(=O)O)C(=O)N[C@@H](CCCNC(=N)N)C(=O)N[C@@H](CCC(N)=O)C(=O)N[C@@H](CCCCN)C(=O)N[C@@H](C)C(=O)N[C@@H](CCC(=O)O)C(=O)N[C@H](C(=O)N[C@@H](CC(N)=O)C(=O)N[C@H](C(=O)N[C@@H](CCC(N)=O)C(=O)N[C@@H](CC(C)C)C(=O)N[C@@H](CC(C)C)C(=O)N[C@@H](CCC(=O)O)C(=O)N[C@@H](CCCNC(=N)N)C(=O)N[C@H](C(N)=O)C(C)C)C(C)C)[C@@H](C)O` [compound 64] (H-FTLSLDVPTKIK([AEEA-AEEA-γGlu-C20 diacid])QILLKQQKQKKERQKAETNVQLLERV-NH2), the EC50 falls from 48.5 nM to 13.2 nM (3.7-fold).

First: CC[C@H](C)[C@H](NC(=O)[C@H](CCC(N)=O)NC(=O)[C@H](CCCCNC(=O)COCCOCCNC(=O)COCCOCCNC(=O)CC[C@H](NC(=O)CCCCCCCCCCCCCCCCC(=O)O)C(=O)O)NC(=O)[C@H](CC(C)C)NC(=O)CNC(=O)[C@@H](NC(=O)[C@@H]1CCCN1C(=O)[C@@H](NC(=O)[C@H](CC(=O)O)NC(=O)[C@H](CC(C)C)NC(=O)[C@H](CO)NC(=O)[C@H](CC(C)C)NC(=O)[C@@H](NC(=O)[C@@H](N)Cc1ccccc1)[C@@H](C)O)C(C)C)[C@@H](C)CC)C(=O)N[C@@H](CC(C)C)C(=O)N[C@@H](CC(C)C)C(=O)N[C@@H](CCCCN)C(=O)N[C@@H](CCC(N)=O)C(=O)N[C@@H](CCC(N)=O)C(=O)N[C@@H](CCCCN)C(=O)N[C@@H](CCC(N)=O)C(=O)N[C@@H](CCCCN)C(=O)N[C@@H](CCCCN)C(=O)N[C@@H](CCC(=O)O)C(=O)N[C@@H](CCCNC(=N)N)C(=O)N[C@@H](CCC(N)=O)C(=O)N[C@@H](CCC(N)=O)C(=O)N[C@@H](C)C(=O)N[C@@H](CCC(=O)O)C(=O)N[C@H](C(=O)N[C@@H](CC(N)=O)C(=O)N[C@H](C(=O)N[C@@H](CCC(N)=O)C(=O)N[C@@H](CC(C)C)C(=O)N[C@@H](CC(C)C)C(=O)N[C@@H](CCC(=O)O)C(=O)N[C@@H](CCCNC(=N)N)C(=O)N[C@H](C(N)=O)C(C)C)C(C)C)[C@@H](C)O [compound 56] (H-FTLSLDVPIGLK([AEEA-AEEA-γGlu-C18 diacid])QILLKQQKQKKERQQAETNVQLLERV-NH2)
Second: CC[C@H](C)[C@H](NC(=O)[C@H](CCC(N)=O)NC(=O)[C@H](CCCCNC(=O)COCCOCCNC(=O)COCCOCCNC(=O)CC[C@H](NC(=O)CCCCCCCCCCCCCCCCCCC(=O)O)C(=O)O)NC(=O)[C@H](CC(C)C)NC(=O)CNC(=O)[C@@H](NC(=O)[C@@H]1CCCN1C(=O)[C@@H](NC(=O)[C@H](CC(=O)O)NC(=O)[C@H](CC(C)C)NC(=O)[C@H](CO)NC(=O)[C@H](CC(C)C)NC(=O)[C@@H](NC(=O)[C@@H](N)Cc1ccccc1)[C@@H](C)O)C(C)C)[C@@H](C)CC)C(=O)N[C@@H](CC(C)C)C(=O)N[C@@H](CC(C)C)C(=O)N[C@@H](CCCCN)C(=O)N[C@@H](CCC(N)=O)C(=O)N[C@@H](CCC(N)=O)C(=O)N[C@@H](CCCCN)C(=O)N[C@@H](CCC(N)=O)C(=O)N[C@@H](CCCCN)C(=O)N[C@@H](CCCCN)C(=O)N[C@@H](CCC(=O)O)C(=O)N[C@@H](CCCNC(=N)N)C(=O)N[C@@H](CCC(N)=O)C(=O)N[C@@H](CCC(N)=O)C(=O)N[C@@H](C)C(=O)N[C@@H](CCC(=O)O)C(=O)N[C@H](C(=O)N[C@@H](CC(N)=O)C(=O)N[C@H](C(=O)N[C@@H](CCC(N)=O)C(=O)N[C@@H](CC(C)C)C(=O)N[C@@H](CC(C)C)C(=O)N[C@@H](CCC(=O)O)C(=O)N[C@@H](CCCNC(=N)N)C(=O)N[C@H](C(N)=O)C(C)C)C(C)C)[C@@H](C)O [compound 65] (H-FTLSLDVPIGLK([AEEA-AEEA-γGlu-C20 diacid])QILLKQQKQKKERQQAETNVQLLERV-NH2)
The EC50 of the first is 2.5-fold higher: 22.9 nM for the first, 9.31 nM for the second. The second is the more potent here.

Going from `CC[C@H](C)[C@H](NC(=O)[C@H](CCC(N)=O)NC(=O)[C@H](CCCCNC(=O)COCCOCCNC(=O)COCCOCCNC(=O)CC[C@H](NC(=O)CCCCCCCCCCCCCCCCC(=O)O)C(=O)O)NC(=O)[C@H](CC(C)C)NC(=O)CNC(=O)[C@@H](NC(=O)[C@@H]1CCCN1C(=O)[C@@H](NC(=O)[C@H](CC(=O)O)NC(=O)[C@H](CC(C)C)NC(=O)[C@H](CO)NC(=O)[C@H](CC(C)C)NC(=O)[C@@H](NC(=O)[C@@H](N)Cc1ccccc1)[C@@H](C)O)C(C)C)[C@@H](C)CC)C(=O)N[C@@H](CC(C)C)C(=O)N[C@@H](CC(C)C)C(=O)N[C@@H](CCCCN)C(=O)N[C@@H](CCC(N)=O)C(=O)N[C@@H](CCC(N)=O)C(=O)N[C@@H](CCCCN)C(=O)N[C@@H](CCC(N)=O)C(=O)N[C@@H](CCCCN)C(=O)N[C@@H](CCCCN)C(=O)N[C@@H](CCC(=O)O)C(=O)N[C@@H](CCCNC(=N)N)C(=O)N[C@@H](CCC(N)=O)C(=O)N[C@@H](CCCCN)C(=O)N[C@@H](C)C(=O)N[C@@H](CCC(=O)O)C(=O)N[C@H](C(=O)N[C@@H](CC(N)=O)C(=O)N[C@H](C(=O)N[C@@H](CCC(N)=O)C(=O)N[C@@H](CC(C)C)C(=O)N[C@@H](CC(C)C)C(=O)N[C@@H](CCC(=O)O)C(=O)N[C@@H](CCCNC(=N)N)C(=O)N[C@H](C(N)=O)C(C)C)C(C)C)[C@@H](C)O` [compound 57] (H-FTLSLDVPIGLK([AEEA-AEEA-γGlu-C18 diacid])QILLKQQKQKKERQKAETNVQLLERV-NH2; N-terminus assumed) to `CC[C@H](C)[C@H](NC(=O)[C@H](CCC(N)=O)NC(=O)[C@H](CCCCNC(=O)COCCOCCNC(=O)COCCOCCNC(=O)CC[C@H](NC(=O)CCCCCCCCCCCCCCCCCCC(=O)O)C(=O)O)NC(=O)[C@H](CC(C)C)NC(=O)CNC(=O)[C@@H](NC(=O)[C@@H]1CCCN1C(=O)[C@@H](NC(=O)[C@H](CC(=O)O)NC(=O)[C@H](CC(C)C)NC(=O)[C@H](CO)NC(=O)[C@H](CC(C)C)NC(=O)[C@@H](NC(=O)[C@@H](N)Cc1ccccc1)[C@@H](C)O)C(C)C)[C@@H](C)CC)C(=O)N[C@@H](CC(C)C)C(=O)N[C@@H](CC(C)C)C(=O)N[C@@H](CCCCN)C(=O)N[C@@H](CCC(N)=O)C(=O)N[C@@H](CCC(N)=O)C(=O)N[C@@H](CCCCN)C(=O)N[C@@H](CCC(N)=O)C(=O)N[C@@H](CCCCN)C(=O)N[C@@H](CCCCN)C(=O)N[C@@H](CCC(=O)O)C(=O)N[C@@H](CCCNC(=N)N)C(=O)N[C@@H](CCC(N)=O)C(=O)N[C@@H](CCCCN)C(=O)N[C@@H](C)C(=O)N[C@@H](CCC(=O)O)C(=O)N[C@H](C(=O)N[C@@H](CC(N)=O)C(=O)N[C@H](C(=O)N[C@@H](CCC(N)=O)C(=O)N[C@@H](CC(C)C)C(=O)N[C@@H](CC(C)C)C(=O)N[C@@H](CCC(=O)O)C(=O)N[C@@H](CCCNC(=N)N)C(=O)N[C@H](C(N)=O)C(C)C)C(C)C)[C@@H](C)O` [compound 66] (H-FTLSLDVPIGLK([AEEA-AEEA-γGlu-C20 diacid])QILLKQQKQKKERQKAETNVQLLERV-NH2; N-terminus assumed), the EC50 falls from 38.8 nM to 25.4 nM (1.5-fold). The second is the more potent here.
